From the supplement of paper PMC10307832

Columns and labels:
Experiment in all cases: relative viability (nuclei count vs DMSO), 5 days (fraction); higher = more cells survive
GW-2580 + Crizotinib = compound: COC1=CC=C(C=C1)COC2=C(C=C(C=C2)CC3=CN=C(N=C3N)N)OC [GW-2580] + C[C@@H](Oc1cc(-c2cnn(C3CCNCC3)c2)cnc1N)c1c(Cl)ccc(F)c1Cl [Crizotinib] (partner 1 µM)
Outline: (§1)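 Lung cancer cell lines were pin-tool dosed in 1536-well plates on the day after seeding, with either a lone drug or a fixed anchor-drug dose plus five library-drug doses (not always all listed) in √10 steps. Nuclei were counted on 4× images after 5 days. Relative viability is the ratio of treated-well to vehicle-well nuclei counts, with each value a median of duplicate plates.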

GW-2580 + Linsitinib = compound: COC1=CC=C(C=C1)COC2=C(C=C(C=C2)CC3=CN=C(N=C3N)N)OC [GW-2580] + C[C@]1(O)C[C@@H](c2nc(-c3ccc4ccc(-c5ccccc5)nc4c3)c3c(N)nccn32)C1 [Linsitinib] (partner 1 µM)
Outline: as §1

GW-2580 + Pictilisib = compound: COC1=CC=C(C=C1)COC2=C(C=C(C=C2)CC3=CN=C(N=C3N)N)OC [GW-2580] + CS(=O)(=O)N1CCN(Cc2cc3nc(-c4cccc5[nH]ncc45)nc(N4CCOCC4)c3s2)CC1 [Pictilisib] (partner 1 µM)
Outline: as §1

GW-2580 + Tozasertib = compound: COC1=CC=C(C=C1)COC2=C(C=C(C=C2)CC3=CN=C(N=C3N)N)OC [GW-2580] + Cc1cc(Nc2cc(N3CCN(C)CC3)nc(Sc3ccc(NC(=O)C4CC4)cc3)n2)n[nH]1 [Tozasertib] (partner 0.1 µM)
Outline: as §1

GW-2580 + OSI-027 = compound: COC1=CC=C(C=C1)COC2=C(C=C(C=C2)CC3=CN=C(N=C3N)N)OC [GW-2580] + COc1cccc2cc(-c3nc([C@H]4CC[C@H](C(=O)O)CC4)n4ncnc(N)c34)[nH]c12 [OSI-027] (partner 0.5 µM)
Outline: as §1

| Cell Line | relative viability (GW-2580 + Crizotinib; first compound 0.08 µM) | relative viability (GW-2580 + Crizotinib; first compound 0.8 µM) | relative viability (GW-2580 + Crizotinib; first compound 2.53 µM) | relative viability (GW-2580 + Crizotinib; first compound 8 µM) | relative viability (GW-2580 + Linsitinib; first compound 0.08 µM) | relative viability (GW-2580 + Linsitinib; first compound 0.8 µM) | relative viability (GW-2580 + Linsitinib; first compound 2.53 µM) | relative viability (GW-2580 + Linsitinib; first compound 8 µM) | relative viability (GW-2580 + Pictilisib; first compound 0.08 µM) | relative viability (GW-2580 + Pictilisib; first compound 0.8 µM) | relative viability (GW-2580 + Pictilisib; first compound 2.53 µM) | relative viability (GW-2580 + Pictilisib; first compound 8 µM) | relative viability (GW-2580 + Tozasertib; first compound 0.08 µM) | relative viability (GW-2580 + Tozasertib; first compound 0.8 µM) | relative viability (GW-2580 + Tozasertib; first compound 2.53 µM) | relative viability (GW-2580 + Tozasertib; first compound 8 µM) | relative viability (GW-2580 + OSI-027; first compound 0.08 µM) | relative viability (GW-2580 + OSI-027; first compound 0.8 µM) | relative viability (GW-2580 + OSI-027; first compound 2.53 µM) | relative viability (GW-2580 + OSI-027; first compound 8 µM) |
| --- | --- | --- | --- | --- | --- | --- | --- | --- | --- | --- | --- | --- | --- | --- | --- | --- | --- | --- | --- | --- |
| NCI-H1915 | 0.896 | 1.14 | 1.03 | 0.905 | 1.2 | 1.13 | 1.1 | 1.11 | 0.986 | 0.906 | 0.954 | 0.886 | 0.469 | 0.44 | 0.489 | 0.387 | 0.638 | 0.649 | 0.626 | 0.598 |
| NCI-H1944 | 1.21 | 1.01 | 1.4 | 1.03 | 1.32 | 1.4 | 1.27 | 1.07 | 0.35 | 0.324 | 0.343 | 0.278 | 0.267 | 0.256 | 0.253 | 0.205 | 0.463 | 0.46 | 0.439 | 0.365 |
| NCI-H1975 | 1 | 1.12 | 0.926 | 0.796 | 1.19 | 0.931 | 0.89 | 0.875 | 0.294 | 0.325 | 0.29 | 0.29 | 0.854 | 1.06 | 0.614 | 0.654 | 0.952 | 0.829 | 0.709 | 0.58 |
| NCI-H1993 | 0.971 | 0.828 |  | 0.936 | 0.757 | 0.735 |  | 0.714 | 0.827 | 0.804 |  | 0.655 | 0.618 | 0.526 | 0.574 | 0.549 | 0.656 | 0.559 | 0.55 | 0.561 |
| NCI-H2009 | 1.05 | 1.05 | 1.07 | 1.01 | 1.14 | 1.21 | 1.18 | 1.06 | 0.924 | 0.982 | 0.652 | 0.809 | 0.744 | 0.828 | 0.715 | 0.707 | 0.665 | 0.707 | 0.619 | 0.633 |
| NCI-H2023 | 0.61 | 0.829 | 0.59 | 0.623 | 0.643 | 0.864 | 0.654 | 0.67 | 0.241 | 0.257 | 0.217 | 0.216 | 0.475 | 0.431 | 0.522 | 0.342 | 0.512 | 0.459 | 0.39 | 0.393 |
| NCI-H2085 | 0.903 | 0.918 | 0.779 | 0.758 | 0.818 | 1.13 | 0.978 | 0.879 | 0.498 | 0.386 | 0.461 | 0.494 | 0.698 | 0.8 | 0.667 | 0.748 | 0.985 | 0.86 | 0.653 | 0.886 |
| NCI-H2087 | 0.8 | 0.993 | 1 | 0.772 | 1.08 | 0.935 | 0.924 | 0.818 | 1.04 | 1.03 | 0.61 | 0.767 | 0.242 | 0.263 | 0.249 | 0.212 | 0.681 | 0.675 | 0.564 | 0.588 |
